Measured values from ChEMBL document CHEMBL1201862, “PubChem BioAssay data set” (2004).
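Growth conditions: 96-well plates. Treatment: test compound, 48 hours, 5 concentrations. Analysis: linear interpolation between bracketing concentrations; unreached endpoints set to highest concentration. GI50: concentration for 50% inhibition of growth.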 The source made the active and inactive calls. Rule as the data show it: active = GI50 up to about 1.1 µM and inactive = higher.

Key:
Assay in all cases: NCI tumour cell line growth inhibition, 48 h
SNB-19 = test system: SNB-19
SNB-75 = test system: SNB-75
SF-268 = test system: SF-268
EKVX = test system: EKVX
UACC-62 = test system: UACC-62
A549 = test system: A549
HCC 2998 = test system: HCC 2998
SF-295 = test system: SF-295
OVCAR-8 = test system: OVCAR-8
786-0 = test system: 786-0
SK-MEL-2 = test system: SK-MEL-2
MCF7 = test system: MCF7
SK-MEL-28 = test system: SK-MEL-28
UACC-257 = test system: UACC-257
SK-MEL-5 = test system: SK-MEL-5
RXF 393 = test system: RXF 393
HOP-62 = test system: HOP-62
SN12C = test system: SN12C
MDA-N = test system: MDA-N

Row | SMILES | GI50 (SNB-19) | GI50 (SNB-75) | GI50 (SF-268) | GI50 (EKVX) | GI50 (UACC-62) | GI50 (A549) | GI50 (HCC 2998) | GI50 (SF-295) | GI50 (OVCAR-8) | GI50 (786-0) | GI50 (SK-MEL-2) | GI50 (MCF7) | GI50 (SK-MEL-28) | GI50 (UACC-257) | GI50 (SK-MEL-5) | GI50 (RXF 393) | GI50 (HOP-62) | GI50 (SN12C) | GI50 (MDA-N)
1 | COc1cc2c(c(OC)c1OC)C(=O)CC2N (configuration not stated) | > 100 µM (inactive) | > 100 µM (inactive) | > 100 µM (inactive) | > 100 µM (inactive) | > 100 µM (inactive) | > 100 µM (inactive) | > 100 µM (inactive) | > 100 µM (inactive) | > 100 µM (inactive) | > 100 µM (inactive) | > 100 µM (inactive) | > 100 µM (inactive) | > 100 µM (inactive) | > 100 µM (inactive) | > 100 µM (inactive) |  |  |  | 
2 | Cc1cc(C)nc(SCC(=O)OC2CC(C)CCC2C(C)C)n1 (configuration not stated) | 18.7 µM (inactive) | 21 µM (inactive) | 37 µM (inactive) | 17.9 µM (inactive) | 14.6 µM (inactive) | 22.6 µM (inactive) |  | 14.6 µM (inactive) | 38.3 µM (inactive) | 21.6 µM (inactive) | 21.8 µM (inactive) | 23.3 µM (inactive) | 26 µM (inactive) | 19.6 µM (inactive) | 15.2 µM (inactive) | 16.8 µM (inactive) | 11.6 µM (inactive) | 19.1 µM (inactive) | 
3 | O=c1[nH]c2cc3[nH]c4ncccc4c(=O)c3cc2[nH]1 | > 10 µM (inactive) | > 10 µM (inactive) | > 10 µM (inactive) | > 10 µM (inactive) | > 10 µM (inactive) | > 10 µM (inactive) | > 10 µM (inactive) | > 10 µM (inactive) | > 10 µM (inactive) | > 10 µM (inactive) | > 10 µM (inactive) |  | > 10 µM (inactive) | > 10 µM (inactive) | > 10 µM (inactive) | > 10 µM (inactive) | > 10 µM (inactive) | > 10 µM (inactive) | > 10 µM (inactive)
4 | S=C1c2ccccc2N=C(NC2CCCC2)C2CSCN12 (configuration not stated) | > 100 µM (inactive) |  | 49.2 µM (inactive) | 37.2 µM (inactive) | 43.5 µM (inactive) | > 100 µM (inactive) | 65.6 µM (inactive) | > 100 µM (inactive) | > 100 µM (inactive) | > 100 µM (inactive) | > 100 µM (inactive) | 67.6 µM (inactive) | 89.7 µM (inactive) | 51.5 µM (inactive) | 49.2 µM (inactive) | 91.6 µM (inactive) | > 100 µM (inactive) | > 100 µM (inactive) | 
5 | CS(=O)(=O)N(CCC#N)c1ccc(C=O)cc1 | > 100 µM (inactive) | > 100 µM (inactive) | > 100 µM (inactive) | > 100 µM (inactive) | > 100 µM (inactive) | > 100 µM (inactive) | > 100 µM (inactive) | > 100 µM (inactive) | > 100 µM (inactive) | > 100 µM (inactive) | > 100 µM (inactive) |  | > 100 µM (inactive) | > 100 µM (inactive) | > 100 µM (inactive) |  | 97.9 µM (inactive) | > 100 µM (inactive) | 
6 | O=C(O)Cc1cc(=O)oc2cc(O)c(Cl)cc12 | > 100 µM (inactive) | 28.6 µM (inactive) | > 100 µM (inactive) | > 100 µM (inactive) | > 100 µM (inactive) | > 100 µM (inactive) | > 100 µM (inactive) | > 100 µM (inactive) | > 100 µM (inactive) | > 100 µM (inactive) | > 100 µM (inactive) |  | > 100 µM (inactive) |  | > 100 µM (inactive) |  | > 100 µM (inactive) | > 100 µM (inactive) | 
7 | CC1(O)CCn2c(=O)c3cc4ccccc4cc3c(=O)n2C1O (configuration not stated) | > 100 µM (inactive) |  | > 100 µM (inactive) | > 100 µM (inactive) | > 100 µM (inactive) | > 100 µM (inactive) | > 100 µM (inactive) | > 100 µM (inactive) | > 100 µM (inactive) | > 100 µM (inactive) | > 100 µM (inactive) |  | > 100 µM (inactive) | > 100 µM (inactive) | > 100 µM (inactive) | > 100 µM (inactive) | > 100 µM (inactive) | > 100 µM (inactive) | 
8 | Cc1ccc2ccccc2c1NC1=NCCO1 | 27.2 µM (inactive) | > 100 µM (inactive) | > 100 µM (inactive) | > 100 µM (inactive) | > 100 µM (inactive) | > 100 µM (inactive) | 82.8 µM (inactive) | > 100 µM (inactive) | > 100 µM (inactive) | > 100 µM (inactive) |  | 82 µM (inactive) | > 100 µM (inactive) | 57.3 µM (inactive) | 81.5 µM (inactive) | > 100 µM (inactive) | > 100 µM (inactive) | > 100 µM (inactive) | 
9 | CC1=NN(c2nc(N)nc(C(C)Cl)n2)C(C)(C)C1 (configuration not stated) | > 100 µM (inactive) | > 100 µM (inactive) | > 100 µM (inactive) | > 100 µM (inactive) | > 100 µM (inactive) |  | > 100 µM (inactive) | > 100 µM (inactive) | > 100 µM (inactive) | > 100 µM (inactive) | > 100 µM (inactive) | > 100 µM (inactive) | > 100 µM (inactive) | > 100 µM (inactive) | > 100 µM (inactive) | > 100 µM (inactive) | > 100 µM (inactive) |  | 
10 | COC(=O)C(CC12CC3CC(CC(C3)C1)C2)NC(=O)C(N)CC(=O)O (configuration not stated) | > 100 µM (inactive) | > 100 µM (inactive) | > 100 µM (inactive) | > 100 µM (inactive) | > 100 µM (inactive) | > 100 µM (inactive) | > 100 µM (inactive) | > 100 µM (inactive) | > 100 µM (inactive) | > 100 µM (inactive) | > 100 µM (inactive) |  | > 100 µM (inactive) | > 100 µM (inactive) | > 100 µM (inactive) | > 100 µM (inactive) | > 100 µM (inactive) | > 100 µM (inactive) | > 100 µM (inactive)
11 | COP(=O)(OC)/C(=N\Nc1ccc([N+](=O)[O-])cc1)NCc1ccccc1 |  | 11.2 µM (inactive) | 23.7 µM (inactive) |  | 28 µM (inactive) | 31.3 µM (inactive) | 62.5 µM (inactive) | 25.8 µM (inactive) | 30.5 µM (inactive) | 34.3 µM (inactive) | 23 µM (inactive) |  | 30.8 µM (inactive) | 21.8 µM (inactive) | 17.5 µM (inactive) |  | 23.6 µM (inactive) |  | 
12 | CC(=O)C1=C(C)N(c2ccc(C)cc2)C2(O)C=CC(O)=C3C(=O)c4ccccc4C(=O)C312 (configuration not stated) | 22.6 µM (inactive) | 19.4 µM (inactive) | 15.9 µM (inactive) | 19.3 µM (inactive) | 10.5 µM (inactive) | 18.6 µM (inactive) | 16.8 µM (inactive) | 13.7 µM (inactive) | 16.1 µM (inactive) | 9.14 µM (inactive) | 7.36 µM (inactive) | 7.71 µM (inactive) | 13.1 µM (inactive) | 10.6 µM (inactive) | 7.4 µM (inactive) | 9.04 µM (inactive) | 26.9 µM (inactive) | 13.6 µM (inactive) | 
13 | Fc1ccc2c3c([nH]c2c1)CCN(Cc1ccccc1)C3 | 16.6 µM (inactive) | 16.9 µM (inactive) | 21 µM (inactive) | 20.9 µM (inactive) | 18.2 µM (inactive) | 22.6 µM (inactive) | 13.2 µM (inactive) | 14.7 µM (inactive) | 19.7 µM (inactive) | 16.1 µM (inactive) |  | 16.7 µM (inactive) | 16.7 µM (inactive) | 15.3 µM (inactive) | 22.3 µM (inactive) | 16 µM (inactive) | 15 µM (inactive) | 19.2 µM (inactive) | 
14 | Cc1cc(S(N)(=O)=O)c(S/C(=N\Nc2ccc([N+](=O)[O-])cc2)c2ccc(Cl)cc2)cc1Cl | 3.33 µM (inactive) | 1.83 µM (inactive) | 2.3 µM (inactive) | 6.19 µM (inactive) | 4.57 µM (inactive) | 2.55 µM (inactive) |  | 2.11 µM (inactive) |  | 2.64 µM (inactive) | 2.76 µM (inactive) | 2.01 µM (inactive) | 0.573 µM (active) | 2.72 µM (inactive) | 3.48 µM (inactive) | 1.75 µM (inactive) | 3.18 µM (inactive) | 3.23 µM (inactive) | 
15 | CCN(CC)S(=O)(=O)c1ccc2[nH]c(NC(=O)OC)nc2c1 | 70.5 µM (inactive) | 42.6 µM (inactive) | 99.3 µM (inactive) | > 100 µM (inactive) |  | 94.6 µM (inactive) | 7 µM (inactive) | 85.7 µM (inactive) | 45.1 µM (inactive) | 64.4 µM (inactive) | > 100 µM (inactive) |  | 37.3 µM (inactive) | 8.02 µM (inactive) | 98.9 µM (inactive) | 81.3 µM (inactive) | 40.3 µM (inactive) | > 100 µM (inactive) | 18.5 µM (inactive)
16 | COC1O[C@@H]2CCN3C(=O)[C@@H](OC(=O)c4ccc([N+](=O)[O-])cc4)[C@H]1C23 (some centres not stated) |  | > 100 µM (inactive) | > 100 µM (inactive) | > 100 µM (inactive) | > 100 µM (inactive) | > 100 µM (inactive) | > 100 µM (inactive) | > 100 µM (inactive) | > 100 µM (inactive) | > 100 µM (inactive) |  | > 100 µM (inactive) |  | > 100 µM (inactive) | > 100 µM (inactive) | > 100 µM (inactive) | > 100 µM (inactive) | > 100 µM (inactive) | 
17 | O=C(O)CSC(CC(=O)c1ccc(Cl)cc1)c1ccc(Cl)cc1 (configuration not stated) | 42 µM (inactive) | 49.8 µM (inactive) | 25.1 µM (inactive) | 41 µM (inactive) | 39.2 µM (inactive) | 38.4 µM (inactive) |  | 42.4 µM (inactive) | 22.3 µM (inactive) | 21.8 µM (inactive) | 50.8 µM (inactive) | 22.2 µM (inactive) |  | 21.2 µM (inactive) | 34.4 µM (inactive) |  | 32.9 µM (inactive) | 43 µM (inactive) | 20.6 µM (inactive)
